Data taken from publication PMC11748363, “Antimicrobial and Antiproliferative Properties of 2‐Phenyl‐N‐(Pyridin‐2‐yl)acetamides” (Chemical Biology & Drug Design, 2025).
Values after ≈ are worked out from the molar mass of the structure shown. Where two headings read alike, the source gives them in different places.

How the values were obtained:
[1] = system: Candida parapsilosis CCM 8260, ATCC 22019; assay: Antifungal microdilution broth MIC, CP; conditions: Lodderomyces parapsilosis
[2] = system: Staphylococcus aureus subsp. aureus CCM 4750, ATCC 43300 (MRSA); assay: Antibacterial microdilution broth MIC, MRSA; type: cell-based; conditions: Staphylococcus aureus
[3] = system: Enterococcus faecalis CCM 4224, ATCC 29212; assay: Antibacterial microdilution broth MIC, EF; type: cell-based
[4] = system: Aspergillus fumigatus ATCC 204305; assay: Antifungal microdilution broth MIC, AF
[5] = system: Mycolicibacterium aurum DSM 43999; assay: Antimycobacterial microdilution broth MIC (resazurin), M. aurum; type: cell-based; conditions: DSM43999, read-out: MIC M. aurum
[6] = system: Staphylococcus epidermidis CCM 4418, ATCC 12228; assay: Antibacterial microdilution broth MIC, SE; type: cell-based
[7] = system: Candida tropicalis CCM 8264, ATCC 750; assay: Antifungal microdilution broth MIC, CT
[8] = system: Pseudomonas aeruginosa CCM 3955, ATCC 27853; assay: Antibacterial microdilution broth MIC, PA; type: cell-based
[9] = system: Aspergillus flavus CCM 8363; assay: Antifungal microdilution broth MIC, AFla
[10] = system: Mycolicibacterium smegmatis DSM 43465; assay: Antimycobacterial microdilution broth MIC (resazurin), M. smegmatis; type: cell-based; conditions: DSM43465, read-out: MIC M. smegmatis
[11] = system: Acinetobacter baumannii DSM 30007, ATCC 19606; assay: Antibacterial microdilution broth MIC, ACI; type: cell-based
[12] = system: Mycobacterium tuberculosis H37Ra; assay: Antimycobacterial microdilution broth MIC (resazurin), Mtb H37Ra; type: cell-based; conditions: Mycobacterium tuberculosis, H37RA, read-out: MIC Mtb H37Ra
[13] = system: Klebsiella pneumoniae CCM 4415, ATCC 10031; assay: Antibacterial microdilution broth MIC, KP
[14] = system: Staphylococcus aureus CCM 4223, ATCC 29213; assay: Antibacterial microdilution broth MIC, SA; type: cell-based; conditions: Staphylococcus aureus
[15] = system: Escherichia coli CCM 3954, ATCC 25922; assay: Antibacterial microdilution broth MIC, EC; type: cell-based
[16] = system: Lichtheimia corymbifera CCM 8077; assay: Antifungal microdilution broth MIC, LC
[17] = system: Candida krusei CCM 8271, ATCC 6258; assay: Antifungal microdilution broth MIC, CK; conditions: Pichia kudriavzevii
[18] = system: Candida albicans CCM 8320, ATCC 24433; assay: Antifungal microdilution broth MIC, CA
[19] = system: Trichophyton interdigitale CCM 8377, ATCC 9533; assay: Antifungal microdilution broth MIC, TI; conditions: Trichophyton interdigitale
[20] = system: HepG2 cell line; assay: Cytotoxicity CellTiter 96, HepG2; type: cell-based, human; conditions: Homo sapiens, HepG2, 24 h, 24 h incubation; ^c compound precipitated in the testing medium; ^d over the limit of tested concentrations
[21] = ATCC204305, 24 h, read-out: MIC AF 24h
[22] = ATCC204305, 48 h, read-out: MIC AF 48h
[23] = CCM8363, 24 h, read-out: MIC AFla 24h
[24] = CCM8363, 48 h, read-out: MIC AFla 48h
[25] = CCM8077, 24 h, read-out: MIC LC 24h
[26] = CCM8077, 48 h, read-out: MIC LC 48h

Compound	MIC ([1]; 24 h, read-out: MIC CP 24h)	MIC ([1]; 48 h, read-out: MIC CP 48h)	MIC ([2]; 24 h, read-out: MIC MRSA 24h)	MIC ([2]; 48 h, read-out: MIC MRSA 48h)	MIC ([3]; 24 h, read-out: MIC EF 24h)	MIC ([3]; 48 h, read-out: MIC EF 48h)	MIC [4, 21]	MIC [4, 22]	MIC [5]	MIC ([6]; 24 h, read-out: MIC SE 24h)	MIC ([6]; 48 h, read-out: MIC SE 48h)	MIC ([7]; 24 h, read-out: MIC CT 24h)	MIC ([7]; 48 h, read-out: MIC CT 48h)	MIC ([8]; 24 h, read-out: MIC PA 24h)	MIC ([8]; 48 h, read-out: MIC PA 48h)	MIC [9, 23]	MIC [9, 24]	MIC [10]	MIC ([11]; 24 h, read-out: MIC ACI 24h)	MIC ([11]; 48 h, read-out: MIC ACI 48h)	further results
COc1ccc(CC(=O)Nc2ccc(Cl)cn2)cc1 [Compound 11, 2-(4-methoxyphenyl)-N-(5-chloropyridin-2-yl)acetamide]	> 500 µM	> 500 µM	> 500 µM	> 500 µM	> 500 µM	> 500 µM	> 500 µM	> 500 µM	> 500 µg/mL	> 500 µM	> 500 µM	> 500 µM	> 500 µM	> 500 µM	> 500 µM	> 500 µM	> 500 µM	> 500 µg/mL	> 500 µM	> 500 µM	MIC ([12]; Calculated from MIC (μg/mL)): > 1800 µM; MIC [12]: > 500 µg/mL; MIC KP 24h [13]: > 500 µM; MIC KP 48h [13]: > 500 µM; MIC ([14]; 24 h, read-out: MIC SA 24h): 250 µM (≈ 69.2 µg/mL); MIC ([14]; 48 h, read-out: MIC SA 48h): 500 µM (≈ 138 µg/mL); MIC ([15]; 24 h, read-out: MIC EC 24h): > 500 µM; MIC ([15]; 48 h, read-out: MIC EC 48h): > 500 µM; MIC [16, 25]: > 500 µM; MIC [16, 26]: > 500 µM; MIC ([17]; 24 h, read-out: MIC CK 24h): > 500 µM; MIC ([17]; 48 h, read-out: MIC CK 48h): > 500 µM; MIC ([18]; 24 h, read-out: MIC CA 24h): > 500 µM; MIC ([18]; 48 h, read-out: MIC CA 48h): > 500 µM; MIC ([19]; 72 h, read-out: MIC TI 72h): > 500 µM; MIC ([19]; 120 h, read-out: MIC TI 120h): > 500 µM; IC50 [20]: 399 µM
O=C(Cc1ccccc1Cl)Nc1ccccn1 [Compound 13, 2-(2-chlorophenyl)-N-(pyridin-2-yl)acetamide]	> 500 µM	> 500 µM	> 500 µM	> 500 µM	> 500 µM	> 500 µM	> 500 µM	> 500 µM	250 µg/mL (≈ 1010 µM)	500 µM (≈ 123 µg/mL)	500 µM (≈ 123 µg/mL)	> 500 µM	> 500 µM	> 500 µM	> 500 µM	> 500 µM	> 500 µM	> 500 µg/mL	> 500 µM	> 500 µM	MIC ([12]; Calculated from MIC (μg/mL)): 253 µM; MIC [12]: 62.5 µg/mL; MIC KP 24h [13]: > 500 µM; MIC KP 48h [13]: > 500 µM; MIC ([14]; 24 h, read-out: MIC SA 24h): > 500 µM; MIC ([14]; 48 h, read-out: MIC SA 48h): > 500 µM; MIC ([15]; 24 h, read-out: MIC EC 24h): > 500 µM; MIC ([15]; 48 h, read-out: MIC EC 48h): > 500 µM; MIC [16, 25]: > 500 µM; MIC [16, 26]: > 500 µM; MIC ([17]; 24 h, read-out: MIC CK 24h): > 500 µM; MIC ([17]; 48 h, read-out: MIC CK 48h): > 500 µM; MIC ([18]; 24 h, read-out: MIC CA 24h): > 500 µM; MIC ([18]; 48 h, read-out: MIC CA 48h): > 500 µM; MIC ([19]; 72 h, read-out: MIC TI 72h): 500 µM (≈ 123 µg/mL); MIC ([19]; 120 h, read-out: MIC TI 120h): 500 µM (≈ 123 µg/mL); IC50 [20]: 755 µM
O=C(Cc1ccccc1Cl)Nc1ccc(Cl)cn1 [Compound 14, 2-(2-chlorophenyl)-N-(5-chloropyridin-2-yl)acetamide]	> 500 µM	> 500 µM	> 500 µM	> 500 µM	> 500 µM	> 500 µM	> 500 µM	> 500 µM	> 500 µg/mL	> 500 µM	> 500 µM	> 500 µM	> 500 µM	> 500 µM	> 500 µM	> 500 µM	> 500 µM	> 500 µg/mL	> 500 µM	> 500 µM	MIC ([12]; Calculated from MIC (μg/mL)): > 1780 µM; MIC [12]: > 500 µg/mL; MIC KP 24h [13]: > 500 µM; MIC KP 48h [13]: > 500 µM; MIC ([14]; 24 h, read-out: MIC SA 24h): > 500 µM; MIC ([14]; 48 h, read-out: MIC SA 48h): > 500 µM; MIC ([15]; 24 h, read-out: MIC EC 24h): > 500 µM; MIC ([15]; 48 h, read-out: MIC EC 48h): > 500 µM; MIC [16, 25]: > 500 µM; MIC [16, 26]: > 500 µM; MIC ([17]; 24 h, read-out: MIC CK 24h): > 500 µM; MIC ([17]; 48 h, read-out: MIC CK 48h): > 500 µM; MIC ([18]; 24 h, read-out: MIC CA 24h): > 500 µM; MIC ([18]; 48 h, read-out: MIC CA 48h): > 500 µM; MIC ([19]; 72 h, read-out: MIC TI 72h): > 500 µM; MIC ([19]; 120 h, read-out: MIC TI 120h): > 500 µM; IC50 [20]: > 50 µM
